Read-outs that look alike come from different tables or passages of the source. Blank lines part the entries; values can stand above or below the compound they belong to.
Tests used:
IDO1 = target: T1, IDO1 (Homo sapiens, UniProt P14902); assay: IDO1 enzymology evaluation method; assay type: biochemical; conditions: IDO-1 enzyme, dynamic OD at 321 nm, IC50 fitted with GraphPad Prism
T1 construct: purchased CP lot number: 20160706
Experimental: IDO1 Enzymology Evaluation Method
(§1) Test Sample: Compounds Prepared in the Corresponding Examples of the Present Invention
Preparation of compound: The compound was formulated into 1 mM compound mother liquor in DMSO, and the compound was diluted 3-fold in DMSO to obtain a compound concentration dilution mother solution (100×) of 9 concentration gradients.
Dosing inhibition: 2 μL of 100× compound dilution mother solution was added to a 96-well plate, added with 100 μL of enzyme solution (IDO-1), and incubated for 10 min at room temperature. 100% DMSO was used as a negative control and NLG-919 was used as a positive control. Incubation was performed with 100 μL of substrate mixture (L-tryptophan, ascorbate, methylene blue, and catalase).
Detection: Dynamic OD data at 321 nm was detected using Spectramax.
Calculation: The inhibition rate was calculated according to the following formula.
The curve slope was fitted using the Spectramax program, and IC50 was fitted using GraphPad Prism 5.0.

Hela cell = Hela cell evaluation method (cytological test, rhIFN-γ stimulated); assay type: cell-based; conditions: Hela cells with 50 ng/mL rhIFN-γ, incubated 48 hours, OD at 480 nm
Experimental: Hela Cell Evaluation Method
as §1
Helacell strain (Purchased from ATCC, Cat. No. CCL-2, 4965442)
Recombinant Human IFN-γ (rhIFN-γ, Purchased from Peprotech, Cat. No. 300-02)
Cell plating: Hela cell suspension was prepared from fresh MEM cell culture medium, added to a 96-well cell culture plate at 5000 cells/well, and cultured at 5% carbon dioxide at 37° C. overnight.
Preparation of compound: The compound was formulated into 2 mM in DMSO, and the compound was diluted 5-fold in DMSO to obtain a compound dilution mother solution (200×) of 6 to 9 concentration gradients, and a 10× dilution solution was prepared in proportion with cell culture medium or liquid.
Dosing incubation: After the cells were plated overnight, 10 μL of the corresponding compound dilution mother solution (10×) and 10 μL of 500 ng/mL rhIFN-γ were added to each well, and the final volume of each well was 100 μL. The negative control wells contained 100 μL of 0.5% DMSO cell culture medium and Hela cells. 50 ng/mL of rhIFN-γ were filled into negative control wells, which are used as positive control. Background control wells contained 100 μL of cell culture medium. Incubation was performed for 48 hours in a 37° C. incubator and cell morphology was observed under an inverted microscope.
Detection: 80 μL of the supernatant was added to a Corning 3894 plate, and 10 μL of 6.1 N trichloroacetic acid was added to each well. The plate was shaken for 2 minutes, placed in a 50° C. incubator to react for 30 minutes, centrifuged at 2500 rpm for 10 minutes. 70 μL of the supernatant was transferred to a Corning 3635 UV plate, added with 70 μL of the reaction solution and the mixture was shaken for 2 minutes to make the reaction mixture uniform. The OD value at 480 nm was measured using EnSpire (PE).

[1] = Rat PK evaluation of the compounds; assay type: in vivo; conditions: SD rats; for Cl_obs iv / Vz_obs iv / tz1/2 iv / tZ1/2 PO / bioavailability / AUC(0-inf): n = 3; for tZ1/2 PO: PO (intragastric) 5 mg/kg; for bioavailability / AUC(0-inf) / Tmax: Sprague-Dawley, rat, plasma; for Tmax: n = 3, median
Experimental: Example 3: Rat PK Evaluation of the Compounds
(§2) Animal administration and sample collection: intragastric administration: Compounds 2 and 13 were dissolved in 10% DMA+10% (30% Solutol)+80% physiological saline to prepare a solution. Compound 15 was dissolved in 10% DMA+10% PEG400+80% physiological saline to prepare a solution. The SD rats were intragastrically administered at a dose of 5.0 mg/kg. The time of blood collection was: 15 min, 30 min, 1 h, 2 h, 4 h, 6 h, 8 h and 24 h.
as §2, with “Intravenous” for “Animal administration and sample collection: intragastric”, “intravenous” for “intragastrically”, “1” for “5.0”, “was: 5 min,” for “was:”
The animals were fixed, the tail was heated in a water bath 10 min before each time point, and about 100 μL of blood was collected through the tail vein, and the blood was then placed in an anti-coagulation tube containing EDTA-K2. Blood samples were centrifuged at 8000 rpm for 6 min at 4° C. to obtain plasma samples, which must be prepared within 30 min of blood collection. The plasma samples were stored at −80° C. in a freezer before test.
Take the sample to be tested from the refrigerator (−80° C.), melted at room temperature and vortexed for 5 min. 20 μL of plasma sample was accurately pipetted into a 1.5 mL centrifuge tube; added with 200 μL of internal standard working solution at a concentration of 50 ng/mL and mixed well. The mixture was vortexed for 5 min (12000 rpm) and centrifuge for 5 min (12000 rpm). 50 μL of supernatant was accurately pipetted into 96-well plates pre-filled with 150 μL/well of water; vortexed for 5 min to mix well. The inject volume was 20 μL and LC-MS/MS was performed.
The concentration of the test sample was output by using Analyst 1.6.3 from AB. The mean, standard deviation, coefficient of variation and other parameters were calculated by Microsoft Excel (direct output from Analyst 1.6.3 is not calculated). PK parameters are calculated by using Pharsight Phoenix 6.1 software NCA (Tmax is the median).

[2] = IV 1 mg/kg, read-out: AUCinf iv
[3] = PO 5 mg/kg, read-out: AUCinf PO

T1 sequence (P14902 whole entry, species assumed): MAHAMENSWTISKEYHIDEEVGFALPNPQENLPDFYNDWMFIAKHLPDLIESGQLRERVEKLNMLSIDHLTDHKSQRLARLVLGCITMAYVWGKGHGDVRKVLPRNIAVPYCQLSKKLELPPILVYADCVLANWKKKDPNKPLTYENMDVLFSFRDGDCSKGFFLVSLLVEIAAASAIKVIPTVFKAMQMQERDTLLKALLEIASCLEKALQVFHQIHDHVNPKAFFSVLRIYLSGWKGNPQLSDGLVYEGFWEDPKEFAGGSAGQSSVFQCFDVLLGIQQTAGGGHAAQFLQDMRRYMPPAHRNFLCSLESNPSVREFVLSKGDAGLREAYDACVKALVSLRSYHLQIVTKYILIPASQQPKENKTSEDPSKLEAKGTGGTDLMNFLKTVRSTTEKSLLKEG

Compound: O=S1(=O)CCC(Nc2nonc2C(=NO)Nc2ccc(F)c(Br)c2)C1 (single isomer, unassigned) [Compound 15-P1]
IC50 (IDO1): 200 nM
IC50 (Hela cell): 19.4 nM

Compound: CS(=O)(=O)N1CCC(Nc2nonc2C(=NO)Nc2ccc(F)c(Br)c2)CC1 [Compound 3, N-(3-bromo-4-fluorophenyl)-N′-hydroxy-4-((1-(methylsulfonyl)piperidin-4-yl)amino)-1,2,5-oxadiazol-3-formamidine]
IC50 (Hela cell; Homo sapiens, HeLa, 48 h): 71 nM

Compound: ON=C(Nc1ccc(F)c(Br)c1)c1nonc1NC1CC2(COC2)C1 [Compound 12, 4-((2-oxaspiro[3.3]heptan-6-yl)amino)-N-(3-bromo-4-fluorophenyl)-N′-hydroxy-1,2,5-oxadiazol-3-carboxamidine]
IC50 (Hela cell; Homo sapiens, HeLa, 48 h): 105 nM

Compound: O=S1(=O)CC2(CC(Nc3nonc3C(=NO)Nc3ccc(F)c(Br)c3)C2)C1 [Compound 13, N-(3-bromo-4-fluorophenyl)-4-((2,2-dioxo-2-thiaspiro[3.3]heptan-6-yl)amino)-N′-hydroxy-1,2,5-oxadiazol-3-formamidine]
Cl_obs iv ([1]; IV 1 mg/kg): 53.3 mL/min/kg
Vz_obs iv ([1]; IV 1 mg/kg): 9.00 L/kg
tz1/2 iv ([1]; IV 1 mg/kg): 2.00 h
tZ1/2 PO [1]: 1.67 h
bioavailability ([1]; IV 1 mg/kg, PO 5 mg/kg): 36.9%
AUC(0-inf) [1, 2]: 336 ng·h/mL
Tmax ([1]; PO 5 mg/kg): 15 min
AUC(0-inf) [1, 3]: 620 ng·h/mL
IC50 (IDO1): 220 nM
IC50 (Hela cell; Homo sapiens, HeLa, 48 h): 68.6 nM

Compound: O=S1(=O)CCC(Nc2nonc2C(=NO)Nc2ccc(F)c(Br)c2)C1 (stereo not shown) [Compound 15, N-(3-bromo-4-fluorophenyl)-4-((1,1-dioxo-tetrahydrothiophen-3-yl)amino)-N′-hydroxy-1,2,5-oxadiazol-3-formamidine]
Cl_obs iv ([1]; IV 1 mg/kg): 45.5 mL/min/kg
Vz_obs iv ([1]; IV 1 mg/kg): 4.03 L/kg
tz1/2 iv ([1]; IV 1 mg/kg): 1.03 h
tZ1/2 PO [1]: 3.40 h
bioavailability ([1]; IV 1 mg/kg, PO 5 mg/kg): 28.1%
AUC(0-inf) [1, 2]: 367 ng·h/mL
Tmax ([1]; PO 5 mg/kg): 60 min
AUC(0-inf) [1, 3]: 516 ng·h/mL
IC50 (IDO1): 220 nM
IC50 (Hela cell; Homo sapiens, HeLa, 48 h): 51.6 nM

Compound: CS(=O)(=O)N1CC2(CC(Nc3nonc3C(=NO)Nc3ccc(F)c(Br)c3)C2)C1 [Compound 16, N-(3-bromo-4-fluorophenyl)-N′-hydroxy-4-((2-(methylsulfonyl)-2-azaspiro[3.3]heptan-6-yl)amino)-1,2,5-oxadiazol-3-formamidine]
IC50 (IDO1): 170 nM
IC50 (Hela cell; Homo sapiens, HeLa, 48 h): 78.3 nM

Compound: O=S1(=O)CC(Nc2nonc2C(=NO)Nc2ccc(F)c(Br)c2)C1 [Compound 26, N-(3-bromo-4-fluorophenyl)-4-((1,1-dioxothietan-3-yl)amino)-N′-hydroxy-1,2,5-oxadiazol-3-formamidine]
IC50 (Hela cell; Homo sapiens, HeLa, 48 h): 76 nM

Next, values leading:

IC50 (IDO1): 240 nM
IC50 (Hela cell): 119 nM
Compound: O=S1(=O)CCC(Nc2nonc2C(=NO)Nc2ccc(F)c(Br)c2)C1 (single isomer, unassigned) [Compound 15-P2]

IC50 (Hela cell; Homo sapiens, HeLa, 48 h): 109 nM
Compound: ON=C(Nc1ccc(F)c(Br)c1)c1nonc1NC1CCOCC1 [Compound 1, N-(3-bromo-4-fluorophenyl)-N′-hydroxy-4-((tetrahydro-2H-pyran-4-yl)amino)-1,2,5-oxadiazol-3-formamidine]

Cl_obs iv ([1]; IV 1 mg/kg): 32.8 mL/min/kg
Vz_obs iv ([1]; IV 1 mg/kg): 5.02 L/kg
tz1/2 iv ([1]; IV 1 mg/kg): 1.82 h
tZ1/2 PO [1]: 3.81 h
bioavailability ([1]; IV 1 mg/kg, PO 5 mg/kg): 62.2%
AUC(0-inf) [1, 2]: 521 ng·h/mL
Tmax ([1]; PO 5 mg/kg): 15 min
AUC(0-inf) [1, 3]: 1620 ng·h/mL
IC50 (Hela cell; Homo sapiens, HeLa, 48 h): 39.7 nM
Compound: O=S1(=O)CCC(Nc2nonc2C(=NO)Nc2ccc(F)c(Br)c2)CC1 [Compound 2, N-(3-bromo-4-fluorophenyl)-4-((1,1-dioxotetrahydro-2H-thiopyran-4-yl)amino)-N′-hydroxy-1,2,5-oxadiazol-3-formamidine]

IC50 (Hela cell; Homo sapiens, HeLa, 48 h): 78.8 nM
Compound: NS(=O)(=O)N1CCC(Nc2nonc2C(=NO)Nc2ccc(F)c(Br)c2)CC1 [Compound 4]

From patent US11046679B2, “Indoleamine 2,3-dioxygenase inhibitor and application” (Nanjing TransThera Biosciences Co. Ltd., priority 2017, dated 2021)
